From patent US7592458B2, “Dermal anesthetic compounds and pharmaceutical compositions for inducing local anesthesia and mitigating neuropathic pain” (priority 2006, dated 2009)
Structures can show the parent of a compound that is named as a salt. Marks after values point to notes of the source that are not given here.

System: guinea pigs
Assay: Local anesthetic activity (infiltration anesthesia), pin-prick method after intradermal injection
Type: in vivo, guinea pig
Details: 0.1 ml intradermal

SMILES | Dermal anesthesia after intradermal injection: non-responding pinpricks of 36 (0.05%, 15 min) | Dermal anesthesia after intradermal injection: non-responding pinpricks of 36 (0.05%, 30 min) | Dermal anesthesia after intradermal injection: non-responding pinpricks of 36 (0.05%, 60 min) | Dermal anesthesia after intradermal injection: non-responding pinpricks of 36 (0.05%, 90 min) | Dermal anesthesia after intradermal injection: non-responding pinpricks of 36 (0.05%, 120 min) | Dermal anesthesia after intradermal injection: non-responding pinpricks of 36 (0.10%, 15 min) | Dermal anesthesia after intradermal injection: non-responding pinpricks of 36 (0.10%, 30 min) | Dermal anesthesia after intradermal injection: non-responding pinpricks of 36 (0.10%, 60 min) | Dermal anesthesia after intradermal injection: non-responding pinpricks of 36 (0.10%, 90 min) | Dermal anesthesia after intradermal injection: non-responding pinpricks of 36 (0.10%, 120 min) | also measured
CCN(CC)CC(=O)Nc1c(C)cccc1C [Lidocaine.HCl, lidocaine, reference compound] |  |  |  |  |  |  |  |  |  |  | Dermal anesthesia after intradermal injection: non-responding pinpricks of 36 (0.25%, 15 min): 31/36; Dermal anesthesia after intradermal injection: non-responding pinpricks of 36 (0.25%, 30 min): 21/36; Dermal anesthesia after intradermal injection: non-responding pinpricks of 36 (0.25%, 60 min): 6/36; Dermal anesthesia after intradermal injection: non-responding pinpricks of 36 (0.25%, 90 min): 4/36; Dermal anesthesia after intradermal injection: non-responding pinpricks of 36 (0.25%, 120 min): 1/36; Dermal anesthesia after intradermal injection: non-responding pinpricks of 36 (0.50%, 15 min): 24/36; Dermal anesthesia after intradermal injection: non-responding pinpricks of 36 (0.50%, 30 min): 18/36; Dermal anesthesia after intradermal injection: non-responding pinpricks of 36 (0.50%, 60 min): 11/36; Dermal anesthesia after intradermal injection: non-responding pinpricks of 36 (0.50%, 90 min): 10/36; Dermal anesthesia after intradermal injection: non-responding pinpricks of 36 (0.50%, 120 min): 9/36; Dermal anesthesia after intradermal injection: non-responding pinpricks of 36 (1.00%, 15 min): 32/36; Dermal anesthesia after intradermal injection: non-responding pinpricks of 36 (1.00%, 30 min): 28/36; Dermal anesthesia after intradermal injection: non-responding pinpricks of 36 (1.00%, 60 min): 9/36; Dermal anesthesia after intradermal injection: non-responding pinpricks of 36 (1.00%, 90 min): 8/36; Dermal anesthesia after intradermal injection: non-responding pinpricks of 36 (1.00%, 120 min): 6/36
CCCCN1CCCCC1CCN(c1ccccc1)C1CCc2ccccc2C1 (stereo not drawn) [Bu-CLAC-34•HCl] | 36/36 | 36/36 | 36/36 | 36/36 | 36/36 | 36/36 | 36/36 | 36/36 | 36/36 | 36/36 | 
CCCN(CCC)CCN(c1ccccc1)C1CCc2ccccc2C1 (stereo not drawn) [CLAC-PP•HCl] | 36/36 | 36/36 | 36/36 | 36/36 | 36/36 | 36/36 | 36/36 | 36/36 | 36/36 | 36/36 | 
c1ccc(N(CCC2CCCCN2)C2CCc3ccccc3C2)cc1 (stereo not drawn) [CLAC-34•HCl] | 35/36* | 36/36** | 6/36 | 36/36 | 36/36 | 36/36 | 36/36 | 36/36 | 36/36 | 36/36 | 
